Patent US11124497B1, “Inhibitors of cysteine proteases and methods of use thereof” (priority 2020, dated 2021)
Where two headings read alike, the source gives them in different places.

Test system: HCoV 229E
Experiment: HCoV 229E cytopathic effect (CPE) assay
Type: cell-based, Human Coronavirus (HCov) 229E
Settings: CellTiter Glo, read-out: 229 ECPE EC50
Description: Compounds were assayed using standard methods against multiple coronaviral strains, including HCoV 229E and OC43 strains. The antiviral activity of compounds was calculated based on the protection of the virus-induced CPE at each concentration normalized by the virus control.
Cytopathic effect (CPE) was measured by CellTiter Glo following the manufacturer's manual. The antiviral activity of compounds was calculated based on the protection of the virus-induced CPE at each concentration normalized by the virus control.

Row | Structure (SMILES) | EC50 (unidentified human coronavirus) | EC50
1 | CC(C)C[C@H](NC(=O)c1nc2c(OC(F)(F)F)cccc2[nH]1)C(=O)N[C@H](C#N)C[C@@H]1CCNC1=O [Compound 363] | < 22 µM | 
2 | COc1cccc2[nH]c(C(=O)N[C@@H](CC(C)C)C(=O)N[C@H](/C=C/S(C)(=O)=O)C[C@@H]3CCNC3=O)cc12 [Compound 136, 4-methoxy-N-[(1S)-3-methyl-1-[[(E,1S)-3-methylsulfonyl-1-[[(3S)-2-oxopyrrolidin-3-yl]methyl]allyl]carbamoyl]butyl]-1H-indole-2-carboxamide] | > 30 µM | 
3 | COc1cccc2[nH]c(C(=O)N3C[C@@H]4CCC[C@@H]4[C@H]3C(=O)N[C@H](C#N)C[C@@H]3CCNC3=O)cc12 [Compound 393] | < 22 µM | 
4 | COc1cccc2[nH]c(C(=O)N3C[C@H](c4ccccc4)C[C@H]3C(=O)N[C@@H](C[C@@H]3CCNC3=O)C(O)C#N)cc12 (stereo partly shown) [Compound 345] | < 22 µM | 
5 | CC(C)C[C@H](NC(=O)c1nc2ncccc2[nH]1)C(=O)N[C@H](C#N)C[C@@H]1CCNC1=O [Compound 131, N-[(1S)-1-[[(1S)-1-cyano-2-[(3S)-2-oxopyrrolidin-3-yl]ethyl]carbamoyl]-3-methyl-butyl]-1H-imidazo[4,5-b]pyridine-2-carboxamide] | 2 to 10 µM | 
6 | COc1cccc2[nH]c(C(=O)N3CC4(CCCCC4)CC3C(=O)N[C@H](C#N)C[C@@H]3CCCNC3=O)cc12 (single isomer, unassigned) [681 (Isomer 1)] | < 22 µM | 
7 | CC(C)C[C@H](NC(=O)c1nc2cccc(Cl)c2[nH]1)C(=O)N[C@H](C#N)C[C@@H]1CCNC1=O [Compound 133] |  | < 22 µM
8 | COc1cccc2[nH]c(C(=O)N3C[C@H]4C([C@H]3C(=O)N[C@H](C#N)C[C@@H]3CCNC3=O)C4(C)C)cc12 (stereo partly drawn) [Compound 197, (2S,5S)—N-[(1S)-1-cyano-2-[(3S)-2-oxopyrrolidin-3-yl]ethyl]-3-(4-methoxy-1H-indole-2-carbonyl)-6,6-dimethyl-3-azabicyclo[3.1.0]hexane-2-carboxamide] | < 22 µM | 
9 | COc1c(Cl)ccc2[nH]c(C(=O)N[C@@H](CC(C)(C)C)C(=O)N[C@H](C#N)C[C@@H]3CCCNC3=O)cc12 [Compound 739] | < 22 µM | 
10 | COc1cccc2[nH]c(C(=O)NC(CC(C)C)C(=O)NC(CC3CCNC3=O)C(O)C#N)cc12 (stereo not shown) [Compound 134] | < 22 µM | 
11 | CC(C)C[C@H](NC(=O)c1nc2ccccc2[nH]1)C(=O)N[C@H](C#N)C[C@@H]1CCNC1=O [Compound 103, N-[(1S)-1-[[(1S)-1-cyano-2-[(3S)-2-oxopyrrolidin-3-yl]ethyl]carbamoyl]-3-methyl-butyl]-1H-benzimidazole-2-carboxamide] | < 22 µM | 
12 | COc1cccc2[nH]c(C(=O)N[C@@H](CC(C)C)C(=O)N[C@@H](C[C@@H]3CCNC3=O)C(C#N)NC(C)(C)C)cc12 (single isomer, unassigned) [323 (Isomer 1)] | < 22 µM | 
13 | COc1cccc2[nH]c(C(=O)N[C@@H](CC3CCCCC3)C(=O)N[C@H](C#N)C[C@@H]3CCNC3=O)cc12 [Compound 185, N-[(1S)-2-[[(1S)-1-cyano-2-[(3S)-2-oxopyrrolidin-3-yl]ethyl]amino]-1-(cyclohexylmethyl)-2-oxo-ethyl]-4-methoxy-1H-indole-2-carboxamide] | < 22 µM | 
14 | COc1cccc2[nH]c(C(=O)N[C@@H](CC(C)C)C(=O)N[C@@H](C[C@@H]3CCNC3=O)C(C#N)N[C@@H](C)c3ccccc3)cc12 (stereo partly shown) [Compound 329] | < 22 µM | 
15 | CC(C)(C)C[C@H](NC(=O)c1cc2ccc(Cl)c(Cl)c2[nH]1)C(=O)N[C@H](C#N)C[C@@H]1CCCNC1=O [Compound 725] | < 22 µM | 
16 | COc1cccc2[nH]c(C(=O)N[C@@H](CC(C)C)C(=O)N[C@@H](C[C@@H]3CCNC3=O)C(N)C#N)cc12 (stereo partly drawn) [Compound 344C, N-[(1S)-1-[[(1S)-2-amino-2-cyano-1-[[(3S)-2-oxopyrrolidin-3-yl]methyl]ethyl]carbamoyl]-3-methyl-butyl]-4-methoxy-1H-indole-2-carboxamide] | < 22 µM | 
17 | COc1cccc2[nH]c(C(=O)N3C[C@H](c4ccccc4)C[C@H]3C(=O)N[C@H](C#N)C[C@@H]3CCNC3=O)cc12 [Compound 171] | < 22 µM | 
18 | N#C[C@H](C[C@@H]1CCNC1=O)NC(=O)[C@H](CC1CC1)NC(=O)c1cc2c([nH]1)CCCC2 [Compound 711] | < 22 µM | 
19 | CC(C)C[C@H](NC(=O)c1cc2c(OC(F)(F)F)cccc2[nH]1)C(=O)N[C@H](C#N)C[C@@H]1CCNC1=O [Compound 361] | < 22 µM | 
20 | COc1cccc2[nH]c(C(=O)N3CC4(CCCCC4)CC3C(=O)N[C@H](C#N)C[C@@H]3CCNC3=O)cc12 (single isomer, unassigned) [389A (Isomer 1)] | < 22 µM | 
21 | COc1cccc2[nH]c(C(=O)N[C@@H](CC(C)C)C(=O)N[C@@H](C[C@@H]3CCNC3=O)C(O)C#N)cc12 (single isomer, unassigned) [134 (Isomer 1)] | < 22 µM | 
22 | CC(C)(C)C[C@H](NC(=O)c1cc2c(Cl)ccc(Cl)c2[nH]1)C(=O)N[C@H](C#N)C[C@@H]1CCCNC1=O [Compound 735] | < 22 µM | 

Row | Structure (SMILES) | EC50 (unidentified human coronavirus) | EC50
23 | COc1cccc2[nH]c(C(=O)N3C[C@H](SC)C[C@H]3C(=O)N[C@H](C#N)C[C@@H]3CCNC3=O)cc12 [Compound 551] | 2 to 10 µM | 
24 | COc1cccc2[nH]c(C(=O)N[C@@H](CC3CC3)C(=O)N[C@H](C#N)C[C@@H]3CCNC3=O)cc12 [Compound 205, N—((S)-1-(((S)-1-cyano-2-((S)-2-oxopyrrolidin-3-yl)ethyl)amino)-3-cyclopropyl-1-oxopropan-2-yl)-4-methoxy-1H-indole-2-carboxamide] | < 22 µM | 
25 | N#C[C@H](C[C@@H]1CCCNC1=O)NC(=O)C1CC2(CCC2)CN1C(=O)c1cc2cccc(Cl)c2[nH]1 (single isomer, unassigned) [729 (Isomer 1)] | < 22 µM | 
26 | CC(C)(C)C[C@H](NC(=O)c1cc2ccc(Cl)cc2[nH]1)C(=O)N[C@H](C#N)C[C@@H]1CCCNC1=O [Compound 745] | < 22 µM | 
27 | N#C[C@H](C[C@@H]1CCNC1=O)NC(=O)[C@H](CC1CC1)NC(=O)c1cc2c(C3CC3)cccc2[nH]1 [Compound 375A] | < 22 µM | 
28 | COc1cccc2[nH]c(C(=O)N[C@@H](CC3CC3)C(=O)N[C@H](C#N)C[C@@H]3CCCNC3=O)cc12 [Compound 491, N-[(1S)-2-[[(1S)-1-cyano-2-[(3S)-2-oxo-3-piperidyl]ethyl]amino]-1-(cyclopropylmethyl)-2-oxo-ethyl]-4-methoxy-1H-indole-2-carboxamide] | < 22 µM | 
29 | N#C[C@H](C[C@@H]1CCCNC1=O)NC(=O)[C@H](CC1CC1)NC(=O)c1cc2ccc(Cl)cc2[nH]1 [Compound 635, 6-Chloro-N-[(1S)-2-[[(1S)-1-cyano-2-[(3S)-2-oxo-3-piperidyl]ethyl]amino]-1-(cyclopropylmethyl)-2-oxo-ethyl]-1H-indole-2-carboxamide] | < 22 µM | 
30 | CCNC(C#N)[C@H](C[C@@H]1CCNC1=O)NC(=O)[C@H](CC(C)C)NC(=O)c1cc2c(OC)cccc2[nH]1 (single isomer, unassigned) [511 (Isomer 1)] | < 22 µM | 
31 | CC(C)(C)C[C@H](NC(=O)c1cc2cccc(Cl)c2[nH]1)C(=O)N[C@H](C#N)C[C@@H]1CCCNC1=O [Compound 721, 7-chloro-N—((S)-1-(((S)-1-cyano-2-((S)-2-oxopiperidin-3-yl)ethyl)amino)-4,4-dimethyl-1-oxopentan-2-yl)-1H-indole-2-carboxamide] | < 22 µM | 
32 | CCNC(C#N)[C@H](C[C@@H]1CCNC1=O)NC(=O)[C@H](CC(C)C)NC(=O)c1cc2c(OC)cccc2[nH]1 (stereo partly drawn) [Compound 511, N-[(1S)-1-[[(1S)-2-cyano-2-(ethylamino)-1-[[(3S)-2-oxopyrrolidin-3-yl]methyl]ethyl]carbamoyl]-3-methyl-butyl]-4-methoxy-1H-indole-2-carboxamide] | < 22 µM | 
33 | COc1ccc(Cl)c2[nH]c(C(=O)N[C@@H](CC(C)(C)C)C(=O)N[C@H](C#N)C[C@@H]3CCCNC3=O)cc12 [Compound 737] | < 22 µM | 
34 | CC(C)C[C@H](NC(=O)c1nc2cccc(Cl)c2[nH]1)C(=O)N[C@H](C#N)C[C@@H]1CCNC1=O [Compound 127] |  | 2 to 10 µM
35 | CCOc1cccc2[nH]c(C(=O)N[C@@H](CC(C)C)C(=O)N[C@H](C#N)C[C@@H]3CCNC3=O)cc12 [Compound 377] | < 22 µM | 
36 | N#C[C@H](C[C@@H]1CCCNC1=O)NC(=O)[C@H](CC1CC1)NC(=O)c1cc2cc(Cl)ncc2[nH]1 [Compound 717] | < 22 µM | 
37 | COc1cccc2[nH]c(C(=O)N[C@@H](CC(C)C)C(=O)NC(C#N)c3cccnc3)cc12 (stereo partly shown) [Compound 433] | 2 to 10 µM | 
38 | N#C[C@H](C[C@@H]1CCCNC1=O)NC(=O)[C@H](CC1CC1)NC(=O)c1cc2c(Cl)nccc2[nH]1 [Compound 715] | < 22 µM | 
39 | COc1cccc2[nH]c(C(=O)N[C@@H](CC(C)(C)C)C(=O)N[C@H](C#N)C[C@@H]3CCNC3=O)cc12 [Compound 405, N-[(1S)-1-[[(1S)-1-cyano-2-[(3S)-2-oxopyrrolidin-3-yl]ethyl]carbamoyl]-3,3-dimethyl-butyl]-4-methoxy-1H-indole-2-carboxamide] | < 22 µM | 
40 | COc1cccc2[nH]c(C(=O)N3CC4(CC4)C[C@H]3C(=O)N[C@H](C#N)C[C@@H]3CCNC3=O)cc12 [Compound 397] | < 22 µM | 
41 | COc1cccc2[nH]c(C(=O)N[C@@H](CC(C)C)C(=O)N[C@@H](C[C@@H]3CCNC3=O)C(O)C#N)cc12 (single isomer, unassigned) [135 (Isomer 2)] |  | < 22 µM
42 | N#C[C@H](C[C@@H]1CCCNC1=O)NC(=O)[C@H](CC1CC1)NC(=O)c1nc2c(Cl)ccc(Cl)c2[nH]1 [Compound 637, 4,7-dichloro-N-[(1S)-2-[[(1S)-1-cyano-2-[(3S)-2-oxo-3-piperidyl]ethyl]amino]-1-(cyclopropylmethyl)-2-oxo-ethyl]-1H-benzimidazole-2-carboxamide] | < 22 µM | 
43 | COc1cccc2[nH]c(C(=O)N3C[C@H](c4ccccc4)CC3C(=O)N[C@H](C=O)C[C@@H]3CCNC3=O)cc12 (stereo partly shown) [Compound 344A] | < 22 µM | 
